Measured values published in US7786141B2 (Vertex Pharmaceuticals Incorporated, priority 2004, dated 2010).

Key:
[1] = biological target: T1, M1 muscarinic receptor (Homo sapiens, UniProt P11229); assay: Functional mobilization of intracellular calcium (FLIPR) in M1-CHO cells; assay type: cell-based; conditions: M1-CHO cells, calcium mobilization (FLIPR); for Emax: read-out: M1 Efficacy
T1 construct: expressed in transfected cells; host or cells: CHO (M1-CHO)
T1 sequence (P11229 1-460): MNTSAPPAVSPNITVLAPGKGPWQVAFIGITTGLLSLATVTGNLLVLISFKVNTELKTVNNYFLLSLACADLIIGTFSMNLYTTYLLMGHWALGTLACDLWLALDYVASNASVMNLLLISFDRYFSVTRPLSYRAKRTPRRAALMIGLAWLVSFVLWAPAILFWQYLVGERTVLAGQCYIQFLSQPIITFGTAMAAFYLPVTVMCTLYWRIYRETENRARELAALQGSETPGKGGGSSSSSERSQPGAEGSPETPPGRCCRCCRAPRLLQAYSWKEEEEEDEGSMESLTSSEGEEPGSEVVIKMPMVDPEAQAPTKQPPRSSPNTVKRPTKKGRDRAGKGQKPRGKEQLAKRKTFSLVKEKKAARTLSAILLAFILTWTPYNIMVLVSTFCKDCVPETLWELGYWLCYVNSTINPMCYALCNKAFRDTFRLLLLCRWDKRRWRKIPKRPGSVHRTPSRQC
Procedure, shortened: (§1)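 Two modes: direct compound addition for agonism, or 15 min compound pre-incubation (or co-application) before carbachol at EC80 for inhibition. Calcium signal from Fluo-3 AM or Calcium 3 dye in CHO cells, 1 mM probenecid, pH 7.4, read 60 sec at 488/540 nm; DMSO 0.5% final.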

[2] = biological target: T2, M4 muscarinic receptor (Homo sapiens, UniProt P08173); assay: Functional mobilization of intracellular calcium (FLIPR) in M4-CHO cells; assay type: cell-based; conditions: M4-CHO cells, calcium mobilization (FLIPR); for Emax: read-out: M4 Efficacy
T2 construct: expressed in transfected cells; host or cells: CHO (M4-CHO)
T2 sequence (P08173 1-479): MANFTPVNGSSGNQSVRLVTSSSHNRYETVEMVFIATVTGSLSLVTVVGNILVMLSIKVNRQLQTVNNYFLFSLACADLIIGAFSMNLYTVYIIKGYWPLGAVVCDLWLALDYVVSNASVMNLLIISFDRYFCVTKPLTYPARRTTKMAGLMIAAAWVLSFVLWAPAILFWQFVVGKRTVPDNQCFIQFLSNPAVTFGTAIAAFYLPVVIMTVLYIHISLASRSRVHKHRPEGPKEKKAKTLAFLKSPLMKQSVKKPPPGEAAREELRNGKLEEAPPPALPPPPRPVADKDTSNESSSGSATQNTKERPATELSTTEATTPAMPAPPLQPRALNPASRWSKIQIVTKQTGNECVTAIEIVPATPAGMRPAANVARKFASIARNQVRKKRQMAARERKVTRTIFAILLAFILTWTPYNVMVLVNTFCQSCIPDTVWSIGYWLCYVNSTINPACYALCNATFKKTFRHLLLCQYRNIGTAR
Procedure, shortened: as §1

| SMILES | EC50 [1] [nM] | Emax [1] [%] | EC50 [2] [nM] | Emax [2] [%] |
| --- | --- | --- | --- | --- |
| Fc1ccc2c(c1)C1(CCN(C3CC4CCC(C4)C3)CC1)CN2 (centres unmarked) [compound 377] | < 100 | 65 to 85 | 100 to 1000 | 65 to 85 |
| COCCOC(=O)N1C2CCC1CC(N1CCC3(CC1)COc1ccc(F)cc13)C2 (centres unmarked) [compound 378] | 100 to 1000 | 65 to 85 | > 1000 | 65 to 85 |
| O=C(C1CC1)N1CC2(CCN(C3CC4CCC(C3)N4C(=O)OC3CCC3)CC2)c2cc(F)ccc21 (centres unmarked) [compound 379] | < 100 | 65 to 85 | 100 to 1000 | 65 to 85 |
| CC(=O)N1CC2(CCN(C3CCN(C(=O)OC(C)C)CC3)CC2)c2cc(C)ccc21 [compound 380] | < 100 | 65 to 85 | 100 to 1000 | 65 to 85 |
| CCOC(=O)N1CCC(N2CCC3(CC2)CN(C(C)=O)c2c(F)cccc23)CC1 [compound 381] | < 100 | 65 to 85 | > 1000 | < 65 |
| Cc1ccc2c(c1)C1(CCN(CC3CC4CCC3C4)CC1)CN2C(=O)OC(C)(C)C (centres unmarked) [compound 382] | < 100 | 65 to 85 | > 1000 | 65 to 85 |
| COC(=O)N1C2CCC1CC(N1CCC3(CC1)CN(S(C)(=O)=O)c1ccc(F)cc13)C2 (centres unmarked) [compound 383] | < 100 | 65 to 85 | 100 to 1000 | < 65 |
| CCOC(=O)N1CCC(N2CCC3(CC2)CN(C(=O)c2ccccc2)c2ccc(F)cc23)CC1 [compound 384] | 100 to 1000 | < 65 | > 1000 | < 65 |
| CC(=O)CN1CC2(CCN(C[C@@H]3C[C@H]4C=C[C@H]3C4)CC2)c2cc(F)ccc21 [compound 385] | 100 to 1000 | 65 to 85 | > 1000 | < 65 |
| CCCOC(=O)N1C2CCC1CC(N1CCC3(CC1)CN(C(=O)OC)c1ccc(F)cc13)C2 (centres unmarked) [compound 386] | 100 to 1000 | < 65 | 100 to 1000 | < 65 |
| CC(=O)N1CC2(CCN(C3CCCCC3)CC2)c2cc(F)ccc21 [compound 387] | < 100 | 65 to 85 | 100 to 1000 | < 65 |
| CS(=O)(=O)N1CC2(CCN(C3CC4CCC(C3)N4C(=O)O[C@H]3CCOC3)CC2)c2cc(F)ccc21 (some centres unmarked) [compound 388] | < 100 | 65 to 85 | > 1000 | < 65 |
| CCCOC(=O)N1C2CCC1CC(N1CCC3(CC1)CN(C(=O)C1CC1)c1ccc(F)cc13)C2 (centres unmarked) [compound 389] | 100 to 1000 | 65 to 85 | > 1000 | < 65 |
| CCOC(=O)N1C2CCC1CC(N1CCC3(CC1)CN(C(=O)C(C)C)c1ccc(F)cc13)C2 (centres unmarked) [compound 390] | < 100 | 65 to 85 | > 1000 | < 65 |
| CCOC(=O)N1CCC(N2CCC3(CC2)CN(CCOC)c2ccc(F)cc23)CC1 [compound 391] | 100 to 1000 | < 65 | > 1000 | < 65 |
| CC(=O)NC1CC2(CCN(C[C@H]3C[C@H]4C=C[C@H]3C4)CC2)c2ccccc21 (some centres unmarked) [compound 392] | < 100 | 65 to 85 | > 1000 | < 65 |
| CC(=O)N1CC2(CCN(CC3CCCCC3)CC2)c2cc(F)ccc21 [compound 393] | < 100 | 65 to 85 | > 1000 | < 65 |
| CC(=O)N1CC2(CCN(C3CCN(C(=O)OCCF)C3)CC2)c2cc(F)ccc21 (centres unmarked) [compound 394] | < 100 | < 65 | 100 to 1000 | < 65 |

| SMILES | EC50 [1] [nM] | Emax [1] [%] | EC50 [2] [nM] | Emax [2] [%] |
| --- | --- | --- | --- | --- |
| CC(=O)N1CC2(CCN(C3CCCN(C(=O)OC(C)C)CC3)CC2)c2cc(F)ccc21 (centres unmarked) [compound 395] | < 100 | < 65 | > 1000 | < 65 |
| CCOC(=O)N1CCC(N2CCC3(CC2)CN(C(=O)c2c(F)cccc2F)c2ccc(F)cc23)CC1 [compound 396] | 100 to 1000 | < 65 | > 1000 | < 65 |
| Cc1ccc2c(c1)C1(CCN(C3CC4CCC(C4)C3)CC1)CN2 (centres unmarked) [compound 397] | 100 to 1000 | 65 to 85 | > 1000 | < 65 |
| CC(=O)N1CC2(CCN(C3CCN(C(=O)O[C@H]4CCOC4)CC3)CC2)c2cc(C)ccc21 [compound 398] | 100 to 1000 | < 65 | > 1000 | < 65 |
| CC(=O)N[C@H]1CC2(CCN(CC3CCN(C(=O)OC(C)C)CC3)CC2)c2ccccc21 [compound 399] | 100 to 1000 | 65 to 85 | 100 to 1000 | < 65 |
| CCNC(=O)N1CC2(CCN(C3CC4CCC3C4)CC2)c2cc(C)ccc21 (centres unmarked) [compound 400] | > 1000 | < 65 | > 1000 | < 65 |
| CCOC(=O)N1CCC(N2CCC3(CC2)CN(C(=O)c2ccc4c(c2)OCO4)c2ccc(F)cc23)CC1 [compound 401] | < 100 | 65 to 85 | > 1000 | < 65 |
| CC(C)OC(=O)N1C2CCC1CC(N1CCC3(CC1)CN(C(=O)O[C@@H]1CCOC1)c1ccc(F)cc13)C2 (some centres unmarked) [compound 402] | 100 to 1000 | 65 to 85 | > 1000 | < 65 |
| CC(=O)N1CC2(CCN(CC3CCN(C(=O)O[C@@H]4CCOC4)CC3)CC2)c2cc(C)ccc21 [compound 403] | < 100 | 65 to 85 | > 1000 | < 65 |
| CC(=O)N1CC2(CCN(CC3CCN(C(=O)OC(C)C)CC3)CC2)c2cc(C)ccc21 [compound 404] | 100 to 1000 | < 65 | > 1000 | < 65 |
| CCCOC(=O)N1C2CCC1CC(N1CCC3(CC1)CN(C(=O)OCCOC)c1ccc(F)cc13)C2 (centres unmarked) [compound 405] | 100 to 1000 | < 65 | > 1000 | < 65 |
| CCOC(=O)N1CCC(N2CCC3(CC2)CN(C(C)=O)c2ccc(-c4ccc(C(N)=O)cc4)cc23)CC1 [compound 406] | 100 to 1000 | < 65 | > 1000 | < 65 |
| C/C=C\c1ccc2c(c1)C1(CCN(C3CCN(C(=O)OCC)CC3)CC1)CN2C(C)=O [compound 407] | 100 to 1000 | < 65 | > 1000 | < 65 |
| CC(=O)NC1CC2(CCN(C[C@@H]3C[C@H]4C=C[C@H]3C4)CC2)c2ccccc21 (some centres unmarked) [compound 408] | < 100 | 65 to 85 | < 100 | 65 to 85 |
| CCOC(=O)N1C2CCC1CC(N1CCC3(CC1)CN(C(=O)OC1CCC1)c1ccc(F)cc13)C2 (centres unmarked) [compound 409] | < 100 | > 85 | < 100 | > 85 |
| CCOC(=O)N1CCC(N2CCC3(CC2)CN(C(=O)c2cccc(F)c2)c2ccc(F)cc23)CC1 [compound 410] | 100 to 1000 | < 65 | 100 to 1000 | < 65 |
| Cc1cc(C(=O)N2CC3(CCN(C4CC5CCC(C4)N5C(=O)O[C@H]4CCOC4)CC3)c3cc(F)ccc32)nn1C (some centres unmarked) [compound 411] | < 100 | < 65 | 100 to 1000 | < 65 |
